Measurements: patent publication US9938269B2, “Inhibitor compounds of phosphodiesterase type 10A” (ABBVIE INC., priority 2011, dated 2018)
Where a name gives a salt, the structure may show the parent alone.

Legend:
PDE10A (human) = target: T1, PDE10A (human) (Homo sapiens, UniProt Q9Y233); assay: Measurement of PDE activity (HTRF cAMP kit), human PDE10A; format: biochemical; conditions: PDE enzymatic reaction, substrate 20 nM for PDE10, 60 minutes at 29 C
T1 construct: purchased BPS Bioscience
Method in brief: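 Recombinant human PDE10A (10–250 pM range across PDEs) with 20 nM cAMP substrate in 20 mM Tris-HCl pH 7.5, 10 mM MgCl2, 0.1% BSA, compound pre-mixed with enzyme. Ran 60 min at 29 °C. Remaining cAMP read by HTRF, converted to % of uninhibited activity, and IC50 fitted.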

[1] = Determination of the microsomal half-life, rat liver microsomes; conditions: rat, liver microsomes, pH 7.4
[2] = Determination of the microsomal half-life, human liver microsomes; conditions: human, liver microsomes, pH 7.4

T1 sequence (Q9Y233 whole entry): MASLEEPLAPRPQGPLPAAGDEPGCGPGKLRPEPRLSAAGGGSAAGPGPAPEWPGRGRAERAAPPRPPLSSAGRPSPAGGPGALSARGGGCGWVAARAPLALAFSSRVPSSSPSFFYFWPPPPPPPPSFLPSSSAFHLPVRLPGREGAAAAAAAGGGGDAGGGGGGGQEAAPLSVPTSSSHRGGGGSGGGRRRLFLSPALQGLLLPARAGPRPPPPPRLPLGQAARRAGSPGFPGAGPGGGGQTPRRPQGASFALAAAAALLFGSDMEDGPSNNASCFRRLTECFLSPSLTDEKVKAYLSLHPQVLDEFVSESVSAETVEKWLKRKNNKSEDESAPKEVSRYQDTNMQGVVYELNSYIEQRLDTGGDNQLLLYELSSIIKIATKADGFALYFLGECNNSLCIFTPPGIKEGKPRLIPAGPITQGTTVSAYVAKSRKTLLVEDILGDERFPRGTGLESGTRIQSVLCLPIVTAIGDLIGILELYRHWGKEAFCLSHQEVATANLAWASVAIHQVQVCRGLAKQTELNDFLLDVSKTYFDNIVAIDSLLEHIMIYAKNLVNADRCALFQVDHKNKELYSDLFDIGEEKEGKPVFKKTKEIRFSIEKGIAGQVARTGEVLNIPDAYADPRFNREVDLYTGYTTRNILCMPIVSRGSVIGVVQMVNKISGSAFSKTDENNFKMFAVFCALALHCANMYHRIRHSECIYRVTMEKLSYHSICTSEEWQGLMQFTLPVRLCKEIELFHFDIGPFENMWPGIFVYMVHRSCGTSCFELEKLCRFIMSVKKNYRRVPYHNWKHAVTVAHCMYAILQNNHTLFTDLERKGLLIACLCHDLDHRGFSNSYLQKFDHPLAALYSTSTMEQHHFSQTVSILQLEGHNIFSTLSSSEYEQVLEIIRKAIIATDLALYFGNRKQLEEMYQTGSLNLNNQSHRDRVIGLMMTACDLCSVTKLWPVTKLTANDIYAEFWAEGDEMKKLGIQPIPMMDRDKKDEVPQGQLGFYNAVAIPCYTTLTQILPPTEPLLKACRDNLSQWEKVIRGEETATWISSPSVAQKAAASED

Compound	IC50 (PDE10A (human))	microsomal CLint at 0.5 μM [1]	microsomal CLint at 0.5 μM [2]
O=C1c2c(cncc2-c2ccncc2)CN1CCc1ccc2ccccc2n1 [Example 2, 7-Pyridin-4-yl-2-(2-quinolin-2-yl-ethyl)-2,3-dihydro-pyrrolo[3,4-c]pyridin-1-one]	< 100 nM	100 to 220 µL/min/mg	100 to 220 µL/min/mg
O=C1c2c(-c3ccncc3)ccnc2CN1CCc1ccc2ccccc2n1 [Example 3, 4-Pyridin-4-yl-6-(2-quinolin-2-yl-ethyl)-6,7-dihydro-pyrrolo[3,4-b]pyridin-5-one]	< 100 nM	100 to 220 µL/min/mg	< 100 µL/min/mg
O=C1c2c(-c3ccncc3)cccc2C(F)(F)N1CCc1ccc2ccccc2n1 [Example 4, 3,3-Difluoro-7-pyridin-4-yl-2-(2-quinolin-2-yl-ethyl)-2,3-dihydro-isoindol-1-one]	< 100 nM	> 220 µL/min/mg	100 to 220 µL/min/mg
O=C1c2c(cccc2-c2ccc3[nH]cnc(=O)c3c2)CN1CCc1ccc2ccccc2n1 [Example 7, 6-[3-oxo-2-(2-quinolin-2-yl-ethyl)-2,3-dihydro-1H-isoindol-4-yl]-1H-quinazolin-4-one trifluoroacetate]	200 to 500 nM	100 to 220 µL/min/mg	100 to 220 µL/min/mg
Cn1cnc2ccc(-c3cccc4c3C(=O)N(CCc3ccc5ccccc5n3)C4)cc21 [Example 8, 7-(3-Methyl-3H-benzoimidazol-5-yl)-2-(2-quinolin-2-yl-ethyl)-2,3-dihydro-isoindol-1-one trifluoroacetate]	200 to 500 nM	100 to 220 µL/min/mg	> 220 µL/min/mg
O=C1c2c(cccc2-c2ccc3[nH]c(=O)[nH]c3c2)CN1CCc1ccc2ccccc2n1 [Example 9, 5-[3-oxo-2-(2-quinolin-2-yl-ethyl)-2,3-dihydro-1H-isoindol-4-yl]-1,3-dihydro-benzoimidazol-2-one trifluoroacetate]	< 100 nM	100 to 220 µL/min/mg	< 100 µL/min/mg
O=C1c2c(cccc2-c2ccc3nn[nH]c3c2)CN1CCc1ccc2ccccc2n1 [Example 10, 7-(3H-Benzotriazol-5-yl)-2-(2-quinolin-2-yl-ethyl)-2,3-dihydro-isoindol-1-one trifluoroacetate]	< 100 nM	< 100 µL/min/mg	100 to 220 µL/min/mg
O=C1c2c(cccc2-c2ccc3nc[nH]c3c2)CN1CCc1ccc2ccccc2n1 [Example 11, 7-(3H-Benzoimidazol-5-yl)-2-(2-quinolin-2-yl-ethyl)-2,3-dihydro-isoindol-1-one trifluoroacetate]	< 100 nM	< 100 µL/min/mg	< 100 µL/min/mg
Nc1ncc2cc(-c3cccc4c3C(=O)N(CCc3ccc5ccccc5n3)C4)ccc2n1 [Example 12, 7-(2-Amino-quinazolin-6-yl)-2-(2-quinolin-2-yl-ethyl)-2,3-dihydro-isoindol-1-one]	< 100 nM	100 to 220 µL/min/mg	100 to 220 µL/min/mg
O=C1c2c(ccc(F)c2-c2ccncc2)CN1CCc1ccc2ccccc2n1 [Example 14, 6-Fluoro-7-pyridin-4-yl-2-(2-quinolin-2-yl-ethyl)-2,3-dihydro-isoindol-1-one]	< 100 nM	100 to 220 µL/min/mg	100 to 220 µL/min/mg
O=C1c2c(cc(F)cc2-c2ccncc2)CN1CCc1ccc2ccccc2n1 [Example 15, 5-Fluoro-7-pyridin-4-yl-2-(2-quinolin-2-yl-ethyl)-2,3-dihydro-isoindol-1-one]	< 100 nM	> 220 µL/min/mg	100 to 220 µL/min/mg
O=C1c2c(cccc2-c2ccncc2)CN1CCc1ccc2sccc2n1 [Example 19, 7-Pyridin-4-yl-2-(2-thieno[3,2-b]pyridin-5-yl-ethyl)-2,3-dihydro-isoindol-1-one]	< 100 nM	100 to 220 µL/min/mg	> 220 µL/min/mg
O=C1c2c(cccc2-c2ccncc2)CN1CCc1cn2ccccc2n1 [Example 20, 2-(2-Imidazo[1,2-a]pyridin-2-yl-ethyl)-7-pyridin-4-yl-2,3-dihydro-isoindol-1-one]	< 100 nM	< 100 µL/min/mg	< 100 µL/min/mg
COc1ccc(-c2cccc3c2C(=O)N(CCc2ccc4ccccc4n2)C3)cn1 [Example 54, 7-(6-Methoxy-pyridin-3-yl)-2-(2-quinolin-2-yl-ethyl)-2,3-dihydro-isoindol-1-one]	< 100 nM	100 to 220 µL/min/mg	100 to 220 µL/min/mg
O=C1c2c(cccc2-c2cncnc2)CN1CCc1ccc2ccccc2n1 [Example 58, 7-Pyrimidin-5-yl-2-(2-quinolin-2-yl-ethyl)-2,3-dihydro-isoindol-1-one]	< 100 nM	< 100 µL/min/mg	> 220 µL/min/mg
Cc1ncccc1-c1cccc2c1C(=O)N(CCc1ccc3ccccc3n1)C2 [Example 86, 7-(2-Methyl-pyridin-3-yl)-2-(2-quinolin-2-yl-ethyl)-2,3-dihydro-isoindol-1-one]	< 100 nM	> 220 µL/min/mg	100 to 220 µL/min/mg

Compound	IC50 (PDE10A (human))	microsomal CLint at 0.5 μM [1]	microsomal CLint at 0.5 μM [2]
Cc1ccc(-c2cccc3c2C(=O)N(CCc2ccc4ccccc4n2)C3)cn1 [Example 91, 7-(6-Methyl-pyridin-3-yl)-2-(2-quinolin-2-yl-ethyl)-2,3-dihydro-isoindol-1-one]	< 100 nM	< 100 µL/min/mg	100 to 220 µL/min/mg
O=C1Cc2ccc(-c3cccc4c3C(=O)N(CCc3ccc5ccccc5n3)C4)cc2N1 [Example 96, 6-[3-Oxo-2-(2-quinolin-2-yl-ethyl)-2,3-dihydro-1H-isoindol-4-yl]-1,3-dihydro-indol-2-one]	< 100 nM	100 to 220 µL/min/mg	100 to 220 µL/min/mg
O=C1c2c(cccc2-c2ccc(C(F)(F)F)nc2)CN1CCc1ccc2ccccc2n1 [Example 98, 2-(2-Quinolin-2-yl-ethyl)-7-(6-trifluoromethyl-pyridin-3-yl)-2,3-dihydro-isoindol-1-one]	200 to 500 nM	< 100 µL/min/mg	100 to 220 µL/min/mg
O=C1c2cccc(-c3ccncc3)c2C(=O)N1CCc1ccc2ccccc2n1 [Example 249, 4-Pyridin-4-yl-2-(2-quinolin-2-yl-ethyl)-isoindole-1,3-dione dihydrochloride]	–	> 220 µL/min/mg	100 to 220 µL/min/mg
CN1CCN(c2cccc3c2C(=O)N(CCc2nc4ccccc4n2C)C3)CC1 [Example 254, 2-[2-(1-Methyl-1H-benzoimidazol-2-yl)-ethyl]-7-(4-methyl-piperazin-1-yl)-2,3-dihydro-isoindol-1-one]	–	< 100 µL/min/mg	< 100 µL/min/mg
COc1ccc(N2CCN(C3CCN(C)CC3)CC2)c2c1CN(CCc1ccc3ccccc3n1)C2=O [Example 269, 4-Methoxy-7-[4-(1-methyl-piperidin-4-yl)-piperazin-1-yl]-2-(2-quinolin-2-yl-ethyl)-2,3-dihydro-isoindol-1-one di-trifluoroacetate]	–	< 100 µL/min/mg	< 100 µL/min/mg
CN1CCN(c2ccnc3c2C(=O)N(CCc2cn4ccccc4n2)C3)CC1 [Example 273, 6-(2-Imidazo[1,2-a]pyridin-2-yl-ethyl)-4-(4-methyl-piperazin-1-yl)-6,7-dihydro-pyrrolo[3,4-b]pyridin-5-one]	–	< 100 µL/min/mg	< 100 µL/min/mg
COCC1CN(c2cccc3c2C(=O)N(CCc2ccc4ccccc4n2)C3)CCO1 (stereo not drawn) [Example 298, 7-(2-Methoxymethyl-morpholin-4-yl)-2-(2-quinolin-2-yl-ethyl)-2,3-dihydro-isoindol-1-one]	–	100 to 220 µL/min/mg	100 to 220 µL/min/mg
O=C1c2c(cccc2N2C[C@H]3CCCNC[C@H]3C2)CN1CCc1ccc2ccccc2n1 [Example 318, 7-(3aS,8aS)-Octahydro-pyrrolo[3,4-c]azepin-2-yl-2-(2-quinolin-2-yl-ethyl)-2,3-dihydro-isoindol-1-one trifluoroacetate]	–	> 220 µL/min/mg	100 to 220 µL/min/mg
O=C1c2c(-c3cccnc3)ccnc2CN1CCc1cn2ccccc2n1 [Example 358, 6-(2-Imidazo[1,2-a]pyridin-2-yl-ethyl)-4-pyridin-3-yl-6,7-dihydro-pyrrolo[3,4-b]pyridin-5-one]	–	< 100 µL/min/mg	< 100 µL/min/mg
Cn1c(CCN2Cc3nccc(NC4COC4)c3C2=O)nc2ccccc21 [Example 359, 6-[2-(1-Methyl-1H-benzoimidazol-2-yl)-ethyl]-4-(oxetan-3-ylamino)-6,7-dihydro-pyrrolo[3,4-b]pyridin-5-one]	–	< 100 µL/min/mg	< 100 µL/min/mg
O=C1c2c(NC3COC3)ccnc2CN1CCc1cn2ccccc2n1 [Example 360, 6-(2-Imidazo[1,2-a]pyridin-2-yl-ethyl)-4-(oxetan-3-ylamino)-6,7-dihydro-pyrrolo[3,4-b]pyridin-5-one]	–	< 100 µL/min/mg	< 100 µL/min/mg
COc1ccc(NC2COC2)c2c1CN(CCc1cn3ccccc3n1)C2=O [Example 362, 2-(2-Imidazo[1,2-a]pyridin-2-yl-ethyl)-4-methoxy-7-(oxetan-3-ylamino)-2,3-dihydro-isoindol-1-one]	–	< 100 µL/min/mg	< 100 µL/min/mg
O=C1c2c(-c3ccncc3)ccnc2CN1CCc1cc2ccccc2o1 [compound 391, 6-[2-(Benzofuran-2-yl)ethyl]-4-(4-pyridyl)-7H-pyrrolo[3,4-b]pyridin-5-one]	–	< 100 µL/min/mg	< 100 µL/min/mg
Cc1nc(CCN2Cc3nccc(-c4ccncc4)c3C2=O)sc1C [compound 408, 6-[2-(4,5-Dimethylthiazol-2-yl)ethyl]-4-(4-pyridyl)-7H-pyrrolo[3,4-b]pyridin-5-one]	–	100 to 220 µL/min/mg	< 100 µL/min/mg
